Data from BigSolDB 2.1.

Structure (SMILES): NC(N)=S
- solubility (mole fraction) (in 2-butanone, 283.15 K): 0.0135
- solubility (mole fraction) (in 2-butanone, 288.15 K): 0.0154
- solubility (mole fraction) (in 2-butanone, 293.15 K): 0.0171
- solubility (mole fraction) (in 2-butanone, 298.15 K): 0.0189
- solubility (mole fraction) (in 2-butanone, 303.15 K): 0.0203
- solubility (mole fraction) (in 2-butanone, 308.15 K): 0.0219
- solubility (mole fraction) (in 2-butanone, 313.15 K): 0.0234
- solubility (mole fraction) (in 2-butanone, 318.15 K): 0.0247
- solubility (mole fraction) (in 2-butanone, 323.15 K): 0.0264
- solubility (mole fraction) (in acetone, 283.15 K): 0.0348
- solubility (mole fraction) (in acetone, 288.15 K): 0.0364
- solubility (mole fraction) (in acetone, 293.15 K): 0.0375
- solubility (mole fraction) (in acetone, 298.15 K): 0.0389
- solubility (mole fraction) (in acetone, 303.15 K): 0.0401
- solubility (mole fraction) (in acetone, 308.15 K): 0.042
- solubility (mole fraction) (in acetone, 313.15 K): 0.0438
- solubility (mole fraction) (in acetone, 318.15 K): 0.0465
- solubility (mole fraction) (in acetone, 323.15 K): 0.0482
- solubility (mole fraction) (in acetonitrile, 283.15 K): 0.00865
- solubility (mole fraction) (in acetonitrile, 288.15 K): 0.00982
- solubility (mole fraction) (in acetonitrile, 293.15 K): 0.0107
- solubility (mole fraction) (in acetonitrile, 298.15 K): 0.012
- solubility (mole fraction) (in acetonitrile, 303.15 K): 0.0134
- solubility (mole fraction) (in acetonitrile, 308.15 K): 0.0146
- solubility (mole fraction) (in acetonitrile, 313.15 K): 0.016
- solubility (mole fraction) (in acetonitrile, 318.15 K): 0.018
- solubility (mole fraction) (in acetonitrile, 323.15 K): 0.0196
- solubility (mole fraction) (in ethanol, 283.15 K): 0.0172
- solubility (mole fraction) (in ethanol, 288.15 K): 0.02
- solubility (mole fraction) (in ethanol, 293.15 K): 0.0227
- solubility (mole fraction) (in ethanol, 298.15 K): 0.0254
- solubility (mole fraction) (in ethanol, 303.15 K): 0.0285
- solubility (mole fraction) (in ethanol, 308.15 K): 0.0315
- solubility (mole fraction) (in ethanol, 313.15 K): 0.0353
- solubility (mole fraction) (in ethanol, 318.15 K): 0.0394
- solubility (mole fraction) (in ethanol, 323.15 K): 0.0442
- solubility (mole fraction) (in ethyl acetate, 283.15 K): 0.00497
- solubility (mole fraction) (in ethyl acetate, 288.15 K): 0.00519
- solubility (mole fraction) (in ethyl acetate, 293.15 K): 0.00548
- solubility (mole fraction) (in ethyl acetate, 298.15 K): 0.0058
- solubility (mole fraction) (in ethyl acetate, 303.15 K): 0.0062
- solubility (mole fraction) (in ethyl acetate, 308.15 K): 0.00664
- solubility (mole fraction) (in ethyl acetate, 313.15 K): 0.00718
- solubility (mole fraction) (in ethyl acetate, 318.15 K): 0.00769
- solubility (mole fraction) (in ethyl acetate, 323.15 K): 0.00814
- solubility (mole fraction) (in isobutanol, 283.15 K): 0.00827
- solubility (mole fraction) (in isobutanol, 288.15 K): 0.0101
- solubility (mole fraction) (in isobutanol, 293.15 K): 0.0116
- solubility (mole fraction) (in isobutanol, 298.15 K): 0.0132
- solubility (mole fraction) (in isobutanol, 303.15 K): 0.0152
- solubility (mole fraction) (in isobutanol, 308.15 K): 0.0171
- solubility (mole fraction) (in isobutanol, 313.15 K): 0.0189
- solubility (mole fraction) (in isobutanol, 318.15 K): 0.0224
- solubility (mole fraction) (in isobutanol, 323.15 K): 0.0251
- solubility (mole fraction) (in isopropanol, 283.15 K): 0.0133
- solubility (mole fraction) (in isopropanol, 288.15 K): 0.0151
- solubility (mole fraction) (in isopropanol, 293.15 K): 0.0168
- solubility (mole fraction) (in isopropanol, 298.15 K): 0.019
- solubility (mole fraction) (in isopropanol, 303.15 K): 0.0225
- solubility (mole fraction) (in isopropanol, 308.15 K): 0.0246
- solubility (mole fraction) (in isopropanol, 313.15 K): 0.0273
- solubility (mole fraction) (in isopropanol, 318.15 K): 0.0308
- solubility (mole fraction) (in isopropanol, 323.15 K): 0.0344
- solubility (mole fraction) (in methanol, 283.15 K): 0.0423
- solubility (mole fraction) (in methanol, 288.15 K): 0.0471
- solubility (mole fraction) (in methanol, 293.15 K): 0.0521
- solubility (mole fraction) (in methanol, 298.15 K): 0.0596
- solubility (mole fraction) (in methanol, 303.15 K): 0.0644
- solubility (mole fraction) (in methanol, 308.15 K): 0.07
- solubility (mole fraction) (in methanol, 313.15 K): 0.0761
- solubility (mole fraction) (in methanol, 318.15 K): 0.0848
- solubility (mole fraction) (in methanol, 323.15 K): 0.0944
- solubility (mole fraction) (in methyl acetate, 283.15 K): 0.00556
- solubility (mole fraction) (in methyl acetate, 288.15 K): 0.00628
- solubility (mole fraction) (in methyl acetate, 293.15 K): 0.00673
- solubility (mole fraction) (in methyl acetate, 298.15 K): 0.00747
- solubility (mole fraction) (in methyl acetate, 303.15 K): 0.00814
- solubility (mole fraction) (in methyl acetate, 308.15 K): 0.00885
- solubility (mole fraction) (in methyl acetate, 313.15 K): 0.00951
- solubility (mole fraction) (in methyl acetate, 318.15 K): 0.0102
- solubility (mole fraction) (in methyl acetate, 323.15 K): 0.0109
- solubility (mole fraction) (in n-butanol, 283.15 K): 0.0104
- solubility (mole fraction) (in n-butanol, 288.15 K): 0.0121
- solubility (mole fraction) (in n-butanol, 293.15 K): 0.0133
- solubility (mole fraction) (in n-butanol, 298.15 K): 0.015
- solubility (mole fraction) (in n-butanol, 303.15 K): 0.0173
- solubility (mole fraction) (in n-butanol, 308.15 K): 0.0195
- solubility (mole fraction) (in n-butanol, 313.15 K): 0.0212
- solubility (mole fraction) (in n-butanol, 318.15 K): 0.0238
- solubility (mole fraction) (in n-butanol, 323.15 K): 0.0274
- solubility (mole fraction) (in n-propanol, 283.15 K): 0.0128
- solubility (mole fraction) (in n-propanol, 288.15 K): 0.0143
- solubility (mole fraction) (in n-propanol, 293.15 K): 0.0157
- solubility (mole fraction) (in n-propanol, 298.15 K): 0.0177
- solubility (mole fraction) (in n-propanol, 303.15 K): 0.0209
- solubility (mole fraction) (in n-propanol, 308.15 K): 0.0231
- solubility (mole fraction) (in n-propanol, 313.15 K): 0.0255
- solubility (mole fraction) (in n-propanol, 318.15 K): 0.029
- solubility (mole fraction) (in n-propanol, 323.15 K): 0.0326
- solubility (mole fraction) (in water, 283.15 K): 0.0211
- solubility (mole fraction) (in water, 288.15 K): 0.0265
- solubility (mole fraction) (in water, 293.15 K): 0.0325
- solubility (mole fraction) (in water, 298.15 K): 0.0396
- solubility (mole fraction) (in water, 303.15 K): 0.0493
- solubility (mole fraction) (in water, 308.15 K): 0.0592
- solubility (mole fraction) (in water, 313.15 K): 0.0701
- solubility (mole fraction) (in water, 318.15 K): 0.0835
- solubility (mole fraction) (in water, 323.15 K): 0.102
